# Measurements taken from ChEMBL document CHEMBL1201862, “PubChem BioAssay data set” (2004).
#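 Results reflect a 48-hour exposure of cells in 96-well plates to compound at five concentrations. GI50 marks 50% less growth.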 Activity calls are given as the source filed them. No stated cut-off is given here; in the data, active = GI50 up to about 1.1 µM and inactive = higher.
# Assays:
# Assay in all cases: NCI anticancer screen, dose series, 48 h
# [1] = tested on: MOLT-4
# [2] = tested on: SK-MEL-2
# [3] = tested on: NCI-H226
# [4] = tested on: HCT-15
# [5] = tested on: OVCAR-8
# [6] = tested on: BT-549
# [7] = tested on: PC-3
# [8] = tested on: HOP-92
# [9] = tested on: IGROV-1
# [10] = tested on: OVCAR-4
# [11] = tested on: MCF7
# [12] = tested on: TK-10
# [13] = tested on: NCI/ADR-RES
# [14] = tested on: SF-268
# [15] = tested on: A549
# [16] = tested on: UO-31
# [17] = tested on: Malme-3M
# [18] = tested on: SF-295
# [19] = tested on: 786-0
# [20] = tested on: NCI-H23
# [21] = tested on: UACC-257
# [22] = tested on: UACC-62
# [23] = tested on: EKVX
# [24] = tested on: K562
# [25] = tested on: ACHN
# [26] = tested on: U-251
# [27] = tested on: HCC 2998
# [28] = tested on: HT-29
# [29] = tested on: SNB-75
# [30] = tested on: SW-620
# [31] = tested on: NCI-H460
# [32] = tested on: MDA-MB-435
# [33] = tested on: CCRF-CEM
# [34] = tested on: KM12
# [35] = tested on: OVCAR-3
# [36] = tested on: SF-539
# [37] = tested on: LOX IMVI
# [38] = tested on: Hs-578T
# [39] = tested on: SNB-19
# [40] = tested on: OVCAR-5
# [41] = tested on: M14
# [42] = tested on: NCI-H522
# [43] = tested on: SR
# [44] = tested on: SN12C
# [45] = tested on: MDA-N
structure (smiles),measurement,setting,value
COc1cccc(-c2nc(-c3cnccn3)n(C/C=C/c3ccccc3)n2)c1,GI50,[1],> 10 µM (inactive)
same,GI50,[2],> 10 µM (inactive)
same,GI50,[3],> 10 µM (inactive)
same,GI50,[4],> 10 µM
same,GI50,[5],> 10 µM (inactive)
same,GI50,[6],> 10 µM (inactive)
same,GI50,[7],> 10 µM (inactive)
same,GI50,[8],1.86 µM (inactive)
same,GI50,[9],> 10 µM (inactive)
same,GI50,[10],> 10 µM (inactive)
same,GI50,[11],> 10 µM (inactive)
same,GI50,[12],> 10 µM (inactive)
same,GI50,[13],> 10 µM (inactive)
same,GI50,[14],> 10 µM (inactive)
same,GI50,[15],> 10 µM (inactive)
same,GI50,[16],> 10 µM (inactive)
same,GI50,[17],> 10 µM (inactive)
same,GI50,[18],> 10 µM (inactive)
same,GI50,[19],> 10 µM (inactive)
same,GI50,[20],> 10 µM (inactive)
same,GI50,[21],> 10 µM (inactive)
same,GI50,[22],> 10 µM (inactive)
same,GI50,[23],> 10 µM (inactive)
same,GI50,[24],> 10 µM (inactive)
same,GI50,[25],> 10 µM (inactive)
same,GI50,[26],> 10 µM (inactive)
same,GI50,[27],> 10 µM (inactive)
same,GI50,[28],> 10 µM (inactive)
same,GI50,[29],6.32 µM (inactive)
same,GI50,[30],> 10 µM (inactive)
same,GI50,[31],> 10 µM (inactive)
same,GI50,[32],> 10 µM (inactive)
same,GI50,[33],> 10 µM (inactive)
same,GI50,[34],> 10 µM (inactive)
same,GI50,[35],> 10 µM (inactive)
same,GI50,[36],> 10 µM (inactive)
same,GI50,[37],> 10 µM (inactive)
same,GI50,[38],> 10 µM (inactive)
same,GI50,[39],> 10 µM (inactive)
same,GI50,[40],> 10 µM (inactive)
same,GI50,[41],> 10 µM (inactive)
same,GI50,[42],> 10 µM (inactive)
same,GI50,[43],> 10 µM (inactive)
same,GI50,[44],> 10 µM (inactive)
same,GI50,[45],> 10 µM (inactive)
